# Tests used:
# [1] = tested on: DSS-induced enteritis model; experiment: DSS-induced enteritis (colitis) model; format: in vivo, mice; conditions: po, Model 10.33 ± 1.11, Mean ± SD, n = 7
# From the text: The experimental mice were pre-acclimatized in the animal facility for one week; at the beginning of the experiment, the mice were given medication intragastrically daily according to their body weight. After the completion of intragastric administration in each group, mice had direct access to water bottles for free drinking. The blank group received normal water, while the other groups received pre-prepared DSS water. Each afternoon, the mice's abdomens were massaged to stimulate defecation, and one fecal pellet was collected onto a white porcelain plate. Fecal consistency was judged and recorded according to Table 30. The fecal occult blood qualitative test kit (Yuanye Biotechnology, #R24187-300T) was used to test for occult blood in feces and the results were interpreted according to Table 31.
# IMQ psoriasis model = experiment: IMQ (imiquimod)-induced psoriasis model; format: in vivo, BALB/c mice; conditions: 100 mg/kg, BID, Mean ± SD, n = 7
# Experimental: Male BALB/c mice, aged 6-8 weeks, were randomly divided into 9 groups after 1 week of acclimatization: blank control group, imiquimod model group (IMQ group, corresponding to the model groups in FIGS. 1 and 2), clobetasol propionate cream group (CLO group), TYKI (BMS-986165) group, IRAK4 protein degrader KT-474 (from patent WO2020113233) group (100 mg/kg), and the compound of the present disclosure (at an appropriate dose), with 6-7 mice in each group. One day before modeling, the hair on the backs of the mice was removed with depilatory cream, with a depilated area of 2×2 cm^2. On the day of modeling, IMQ cream was used for modeling, and the corresponding drugs were administered intragastrically for treatment. The compound of the present disclosure (at an appropriate dose) was administered intragastrically once daily, and IMQ cream was applied to the hairless area on the back and left ear of mice 2 h after the first administration. […] The blank group and the IMQ group were administered with vehicle intragastrically twice daily (in the morning and evening), with an 8-h interval between the two intragastric administrations. At 2 h after the first intragastric administration, vaseline and IMQ cream were applied topically to the depilated back and ears of the mice, respectively. The dosage of IMQ cream administered to the depilated area on the back and the left ear was 80 mg and 10 mg, respectively, and the mice in each group were administered the cream for 5 consecutive days.
# Reference was made to the Psoriasis Area and Severity Index (PASI) scoring criteria. The psoriasis, erythema, and thickness of skin lesions on the back were scored from 0 to 4 every morning from day 1 of modeling, with the scoring criteria as shown in Table 28. The 3 were added up to obtain a total score, i.e., a total PASI score. The ear thickness of the left ear of the mouse was measured using a digital vernier caliper three times every morning from day 1 of modeling, to obtain a mean value.
# [2] = tested on: CIA-induced rheumatoid arthritis model; experiment: CIA-induced rheumatoid arthritis model; format: in vivo, DBA/1J mice; conditions: BID, Model 12.31 ± 2.97, Mean ± SD, n = 7
# Experimental: 1. DBA/1J mice, male, SPF grade, were pre-acclimatized in the animal facility for one week. 2. On day 1, for the primary immunization, 2 mg/mL bovine type II collagen was mixed thoroughly with an equal volume of complete Freund's adjuvant on ice using a homogenizer until fully emulsified. 100 μL of the collagen emulsion (final concentration 1 mg/mL) was intradermally injected at 2 cm from the base of the mouse tail. Medical iodophor was used to disinfect the tail after injection to prevent tail necrosis, which was conducted for 3 consecutive days. 3. On day 21, bovine type II collagen solution was thoroughly mixed and emulsified with an equal volume of Freund's incomplete adjuvant, using the same method as the primary immunization. 4. On day 26, LPS was administered intraperitoneally at a dose of 50 μg/animal to induce disease. 5. On day 28, the affected mice were scored according to Table 33 and the diameter of their ankle joints was measured. Mice were randomly grouped and treated with medication based on their scores and ankle diameter.
# [3] = tested on: R848-induced IL-6 secretion in human peripheral blood mononuclear cells (PBMCs); experiment: Inhibition of R848-induced IL-6 secretion in human PBMCs (IL-6 ELISA); format: cell-based; conditions: PBMC, R848 2.5 μg/mL, 20 h pre-incubation, 24 h stimulation
# Experimental: This experiment was carried out in RPMI 1640 medium containing 10% FBS and 1% penicillin/streptomycin, with each of the compounds at an initial test concentration of 1 μM. The compound was dissolved in DMSO to prepare a stock solution, which was serially diluted into a series of working solutions with a 4-fold concentration gradient using the culture medium and then added to a 96-well plate at 10 μL per well. PBMCs (Batch No.: P122101102C; Milecell Biotechnology Inc.) were counted and diluted to a cell concentration of 1.25×10^6 cells/mL, and then added to the aforementioned compound-containing 96-well plate at 160 μL per well. The system was mixed well and incubated in a 5% CO2 incubator at 37° C. for 20 h. Then 10 μL of R848 (final concentration: 2.5 μg/mL) was added, and the culture was continued for 24 h in a 5% CO2 incubator at 37° C. After incubation, the 96-well plate was centrifuged at 2000 rpm for 4 min. The supernatant was collected and diluted 120-fold, then detected using an IL-6 ELISA kit. The OD450 values were read, and converted to IL-6 concentrations based on a standard curve.
# [4] = tested on: LPS/IL-1β-induced IL-6 secretion in human peripheral blood mononuclear cells (PBMCs); experiment: Inhibition of LPS/IL-1β-induced IL-6 secretion in human PBMCs (IL-6 ELISA); format: cell-based; conditions: PBMC, LPS 10 ng/mL + IL-1β 20 ng/mL, 24 h pre-incubation, 20 h stimulation
# Outline: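 PBMCs preincubated 24 h at 37 °C with compounds (5-fold dilutions from 1 μM) in RPMI/10% FBS, then stimulated 20 h with LPS 10 ng/mL plus IL-1β 20 ng/mL (final). IL-6 in 200-fold diluted supernatant measured by ELISA at OD450 against a standard curve; IC50 from dose-response fitting.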
# IRAK4 = target: T1, IRAK4 (Homo sapiens, UniProt Q9NWZ3); experiment: IRAK4 protein degradation in THP1 cells (Western blot); format: cell-based; conditions: THP-1 cells, 24 h
# T1 construct: Effect of the Compounds on IRAK4 Protein Degradation in THP1 Cells; endogenous in cells; host or cells: THP-1 cells
# T1 sequence (Q9NWZ3 1-460): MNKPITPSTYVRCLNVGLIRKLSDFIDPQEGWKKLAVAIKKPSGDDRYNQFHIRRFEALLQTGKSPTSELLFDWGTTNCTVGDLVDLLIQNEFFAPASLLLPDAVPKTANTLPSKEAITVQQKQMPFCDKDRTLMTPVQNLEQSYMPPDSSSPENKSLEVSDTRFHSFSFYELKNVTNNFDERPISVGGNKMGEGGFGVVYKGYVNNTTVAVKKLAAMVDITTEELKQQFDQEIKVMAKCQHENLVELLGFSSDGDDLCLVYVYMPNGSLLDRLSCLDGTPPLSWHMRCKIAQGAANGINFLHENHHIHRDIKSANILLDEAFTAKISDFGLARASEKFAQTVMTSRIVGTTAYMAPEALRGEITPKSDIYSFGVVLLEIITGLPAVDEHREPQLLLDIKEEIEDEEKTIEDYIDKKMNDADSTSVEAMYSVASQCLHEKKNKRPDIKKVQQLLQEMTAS
# Outline: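 THP-1 cells (2×10^5/well) were treated with 5-fold serial compound dilutions for 24 h at 37 °C, then lysed with proteasome/phosphatase inhibitors. IRAK4 was detected by Western blot with chemiluminescence and semi-quantified by densitometry. DC50 came from the concentration–response.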
structure (smiles),measurement,setting,value
"Cn1c(=O)n(C2CCC(=O)NC2=O)c2cccc(C#CCOC3CCN(C[C@H]4CC[C@H](n5cc(NC(=O)c6cnn7ccc(N8C[C@H]9C[C@@H]8CO9)nc67)c(C(F)F)n5)CC4)CC3)c21 (some centres unmarked) [KT474, reference compound]",DAI Score d 8,"[1]; 100 mpk, BID",5.71 ± 1.28
same,PASI Score d 6,IMQ psoriasis model; Model 8.85 ± 1.66,6.93 ± 2.36
same,ΔSkin Thickness Change (μm) d 6,IMQ psoriasis model; Model 80.95 ± 6.16,31.90 ± 9.90 μm
same,DAI Score d 42,[2]; 100 mg/kg,11.63 ± 2.55
CN(C)c1cc2nn([C@H]3CC[C@H](CN4C[C@@H](F)[C@H](n5cc6c(F)cc(N7CCC(=O)NC7=O)cc6n5)C4)CC3)cc2cc1NC(=O)c1cnn2cccnc12 [TM-221],IC50,[3],7.1 nM
same,IC50,[4],1.88 nM
same,DAI Score d 8,"[1]; 3 mpk, QD",4.43 ± 1.68
same,DAI Score d 8,"[1]; 10 mpk, QD",3.00 ± 1.07
same,DAI Score d 8,"[1]; 30 mpk, QD",2.57 ± 2.50
same,DC50,IRAK4,8.45 nM
"C[C@@H]1CCN(C(=O)CC#N)C[C@@H]1N(C)c1ncnc2[nH]ccc12 [tofacitinib, Tofacitinib, reference compound]",DAI Score d 42,[2]; 30 mg/kg,10.67 ± 3.13
